# Measured values reported in patent US6069167A, “Use of antioxidant agents to treat cholestatic liver disease” (priority 1997, dated 2000).
# Key:
# liver = test: Histology of the liver in the in vivo reversible hepatic injury model; design: species or system rat
# From the text: The instant invention also provides for an in vivo reversible hepatic injury model animal model, preferably a rodent model, most preferably a rat model. The animal can be dosed with any injurious bile acid or analogs thereof Suitable injurious bile acids include conjugates of chenodeoxycholic acid and lithocholic acid. A particularly suitable injurious bile acid analog is taurochenodeoxycholic acid. The injurious bile acid or analog can be administered by any suitable means, such as injection, oral or rectal administration. The injurious bile acid or analog thereof can be conveniently administered intravenously, particularly intravenous administration in the tail vein. The time of administration should be for less than 10 minutes, preferably approximately 1 to 2 minutes.
# These histological findings are similar to those reported in a recently described rat model of continuous jugular vein infusion of TCDC at a rate of 0.4 to 0.6 μmol/min/100 gram over 60 minutes^31. […] However, the model of the instant invention produced similar results at half the TCDC dosages of the continuous TCDC infusion model, and allows for rapid, convenient infusion of TCDC.
# Based on these biochemical and histological findings, a suitable time point for the embodiment of the instant invention using TCDC as the toxic bile acid was the 4 hour, 10 μmol/100 gram weight dose.
# TCDC hepatic toxicity = type: in vivo, male Sprague-Dawley rats; conditions: rat, in vivo
# From the text: Young adult male Sprague-Dawley rats (150-180 gram weight) purchased from Sasco, Inc. (Omaha, Nebr.) were fed Purina Lab Chow (Ralston Purina Co., Chicago, Ill.) ad libitum for 2-3 weeks and housed in polyethylene cages with stainless steel tops on a 12-hour light-dark cycle. All rats received humane care in compliance with the guidelines of the Animal Use in Research Committee of the University of Colorado Health Sciences Center. […] TCDC is a conjugate of the bile acid most implicated in cholestatic liver injury9,11,12. TCDC was solubilized in 5% dextrose, 10% BSA, and 0.45% normal saline. TCDC was administered while rats were under light methoxyflurane anesthesia as an intravenous bolus of the desired dose in 1 to 2 minutes through the tail vein. TCDC dosing was performed between 7 and 9 am. […] Rats were divided into two treatment groups. One group was pretreated with parenteral Vitamin E (all-rac-alpha tocopherol, […], Hoffmann-LaRoche,Nutley, N.J.). The other group was not pretreated. These rats then received either vehicle or TCDC (10 μmol/[…]) by tail vein injection (as described in Example 1). […] All i.p. injections were administered under light methoxyflurane anesthesia. Following the vitamin E or saline injections, rats were randomly assigned to receive a tail vein bolus injection of either TCDC or vehicle. Rats were sacrificed four hours later and serum was analyzed for AST, ALT, total bilirubin and alkaline phosphatase. […] The serum alpha tocopherol:total lipids ratio (mg/gm) was calculated as an additional index of vitamin E status^41.
# [1] = tested on: lactate dehydrogenase (LDH); test: Interference of TCDC with the LDH assay (total LDH activity of hepatocyte lysate); type: cell-based, rat; conditions: 10×10^6 hepatocytes incubated 4 hours with or without TCDC at 1000 μmol/L
# Protocol: Adult male Sprague Dawley rats (250-275 grams body weight) were obtained from Sasco, Inc. (Omaha, Nebr.). They were maintained on Purina lab chow (Ralston Purina Co., Chicago, Ill.) for 2-3 weeks and housed in polyethylene cages with stainless steel tops on a […]. All rats received humane care in compliance with the guidelines of the Committee on Laboratory Animal Research of the University of Colorado Health Sciences Center. Hepatocytes were isolated using a collagenase reperfusion technique that was a modification^24 of the method of Berry and Friend^25. After administration of intraperitoneal anesthesia (50 mg/kg body weight), each rat liver was perfused in situ via the portal vein with Krebs-Henseleit buffer containing a mixture of 17 amino acids as previously described^24 under a 9% O2 /5% CO2 /86% N2 atmosphere until perfusate was blood free (after approximately 25-50 ml of perfusate infusion). […] Initial cell viability measured by the trypan blue exclusion method^43 was above 95%. […]
# Hepatocyte injury was assessed by the percentage of total cellular lactate dehydrogenase (LDH) release into the buffer medium. LDH was analyzed by measuring the rate of decrease in absorbance at 340 nm during reduction of pyruvate using a diagnostic kit supplied by Sigma Diagnostics (St Louis, Mo.). […]
# bile flow = conditions: continuous jugular vein TCDC infusion 0.4 to 0.6 μmol/min/100 gram over 60 minutes; cited from earlier work
structure (smiles),measurement,setting,value
"C[C@H](CCC(=O)NCCS(=O)(=O)O)[C@H]1CC[C@H]2[C@@H]3[C@H](O)C[C@@H]4C[C@H](O)CC[C@]4(C)[C@H]3CC[C@]12C [TCDC, taurochenodeoxycholic acid]",Histology of the liver,liver; 4 h after TCDC 10 μmol/100 gram weight,"mild hepatocyte swelling, variable necrosis of individual hepatocytes, mild portal tract infiltration with lymphocytes without bile duct injury, and accumulation of smooth eosinophilic globules"
same,Reversibility of hepatocyte injury,"liver; TCDC 10 μmol/100 gram weight, 24 h",much reduced by 24 hours after injection
same,Predominant histological findings of the in vivo model,"liver; rat model, TCDC",Hepatocyte swelling and a mild degree of cellular necrosis
same,ALT,TCDC hepatic toxicity,1111 ± 213 IU/L
same,AST,TCDC hepatic toxicity,2472 ± 505 IU/L
same,Bilirubin,TCDC hepatic toxicity,0.4 ± 0.1 mg/dL
same,Total hepatocyte LDH activity in the lysate,[1],90-96 units
same,Bile flow and hepatic bile secretion,bile flow,marked reduction in bile flow and of hepatic bile secretion
